The test system of series [1] is mouse model of hyperglycemia. Put plainly: Oral glucose tolerance test. In kind it is in vivo, mice. The text has this: Type II diabetes is characterized by high blood glucose level in the presence of normal amounts of insulin. Animal models of type II diabetes involve administering a high level of glucose and measuring blood glucose level and the ability of the experimental animal to maintain glucose homeostasis over time. Several pharmacological structural classes can effectively regulate this hyperglycemic response including sulfonylureas, thiazoladinediones (PPARγ agonists; glitazones) or metformin (glucophage). These drug classes are also clinically approved for use in humans. In the current study, a mouse model of hyperglycemia has been established by administering high level of glucose to mice.
Glucose was formulated in water at a concentration of 150 mg/ml and dosed at a volume of 10 ml/kg to produce a dose of 1.5 g/kg. Glucose was measured using the Ascensia II Elite XL glucose monitor (Bayer). Glucose was measured by taking a small (2 mm) section off the tip of the tail, bleed onto glucose test strip. Data for each time point was analyzed by ANOVA and post-hoc Tukey's test. A p value of less then 0.05 was used to indicate statistical significance. Two studies were conducted with the following Compound 102.
In study 1, mice were dosed with Compound 102 and glucose as follows:
In study 2, mice were dosed with Compound 102 and glucose as follows.
Study 3 tested Compound 102 and was conducted as follows: […]

Series [2] has as its system Male CD1/ICR mice fed Western Diet. The series can be described thus: Western Diet study (weight, food intake, fat pads). The class given is in vivo. How it is done: Male CD1/ICR mice were obtained from Harlan. The study was started when mice were 8 weeks of age. Prior to initiation of the study mice fasted for 24 hours. Mice were fed “Western Diet” that was designed to approximate the “typical” human diet of North America and Europe (Research Diets; New Brunswick, N.J.; Western Diet composition). The Western Diet contained greater than 5 times more fat than normal chow. [table] Mice were weighed daily beginning from the start of the 24 hour fasting period. Food intake was monitored continuously. Mice were bled by retroorbital eyebleed on days 7, 14, 21 and 28 after the initiation of the study. On day of REB, mice were dosed 1× with full dose 1 hour prior to bleed. Fat pads were dissected at the end of the study (day 31) weighed and frozen. The following fat pads were dissected: brown, inguinal, axial, mesenteric, renal, and epidydimal. Data were averaged and analyzed by ANOVA followed by a post-hoc Tukey's test with a p value of less then 0.05 indicating a statistical difference.

Series [3] has as its system mice on western diet. Put plainly: Leptin level in Western Diet treated animals (ELISA). The class given is in vivo. The conditions noted are these: mice fed western diet, bled days 7, 14, 21, 28, dosed 1 hour prior to bleed. The procedure: Blood from mice that were on western diet (Compound 102) were analyzed for leptin level. Mice were bled by retroorbital eyebleed on days 7, 14, 21 and 28 after the initiation of the study. On day of REB, mice were dosed once with full dose 1 hour prior to bleed. Leptin level was determined by ELISA (R&D Systems) as per directions. Data are expressed as the average±SEM. Data were averaged and analyzed by ANOVA followed by a post-hoc Tukey's test with a p value of less then 0.05 indicating a statistical difference.

Series [4] relates to Db/Db Leptin Receptor deficient diabetes/metabolic syndrome animal model. Put plainly: In vivo Db/Db mouse study, glucose study. The following applies: Db/Db mice. How it is done:
(§1) Db/Db and Db/lean mice were obtained from Harlan at 6 weeks of age. Mice were housed 3 per cage and fed ad libitum normal rodent chow. Mice were kept on a 12 hour light:dark cycle.
(§2) The study was initiated when mice reached an age of 8 weeks and their baseline blood glucose level was greater than 200 mg/dl. Compound 102 was formulated in PBS:2N HCl (99:1) at concentrations of 0.5, 1.5 and 5 mg/ml. Mice were dosed at volumes of 10 ml/kg to produce doses of 5, 15 and 50 mg/kg/dose. Mice were dosed twice per day at an 8 hour interval (8 am and 4 pm) during the light cycle.
For the acute blood glucose measurements, blood glucose level was measured after the animals received their first dose of Compound 102. Blood glucose level was measured two hours after this initial injection.
In this study, mice were dosed with Compound 102 IP, twice/day over the course of four weeks.

Series [5] concerns Db/Db mice. The series can be described thus: In vivo Db/Db mouse study, obesity study. The conditions noted are these: 28 days. The procedure: as §1, §2
Mice were administered vehicle or drug (i.e., Compound 102) (5, 15, and 50 mg/kg) twice per day (bid) for the 28 days. Mouse weight and food intake were monitored daily. Food intake is reported as food intake (grams) per mouse per 24 hour period.

In series [6] the test system is Zucker rats. Put plainly: In vivo Zucker rat glucose study. The following applies: 30 mg/kg ip, glucose 1.5 g/kg oral gavage, 30 and 270 minutes after glucose. The procedure:
Zucker rats and corresponding lean rats were supplied by Harlan. Rats were fed a normal diet, ad libitum, and kept on a 12 hour light/dark cycle. Rats were housed 3 per cage. At 12 weeks of age, Zucker rats were administered Compound 102 at a concentration of 30 mg/kg (ip). Blood glucose level was measured 30 minutes after administration. Forty-five minutes after drug administration, animals were administered a glucose solution (1.5 g/kg) by oral gavage. Blood glucose level was measured every 30 minutes after gavage for 4.5 hours. There were 3 groups with 3 animals per group: 1) 3 Zucker leans (no drug; no glucose treatment); 2) Zucker vehicle treated group (glucose challenged); and 3) Zucker Compound 102 treatment (30 mg/kg); glucose challenged.

The test system of series [7] is IRS-1. Put plainly: IRS-1 phosphorylation in vivo (immunoprecipitation). The conditions noted are these: mice, fat pads and livers removed ninety minutes after drug administration, FIGS. 2A, 2B. How it is done: (§3) The following studies were conducted to determine whether Compound 102 activated lyn kinase in vivo. This determination was conducted by measuring activation (phosphorylation) of downstream substrates of Lyn in mice treated with Compound 102. Referring to FIGS. 2A, 2B, and 3, mice were administered Compound 102 at the indicated dose. Ninety minutes after drug administration, fat pads and livers were removed. IRS-1 phosphorylation was measured by immunoprecipitation using an anti-phosphotyrosine antibody and probing with either IRS-1 or AKT antibody.

The test system of series [8] is AKT. The series can be described thus: AKT phosphorylation in vivo (immunoprecipitation). The following applies: mice, fat pads and livers removed ninety minutes after drug administration, FIG. 3. The procedure: as §3
Where [9] appears, read: study 1, mice, single administration, 30 mg/kg.
Setting [10] is: IP twice/day over four weeks, 5, 15, 50 mg/kg.

In the case of `O=c1ncc(Oc2cccc(Cl)c2)c[nH]1` [Compound 105], in series [1] (mice, single dose of 2 or 10 mg/kg), the “baseline blood glucose level” value is “significantly depressed”. For the same compound, the “blood glucose level at all time points after administration” value in series [1] (mice, single dose of 2 or 10 mg/kg, P<0.05) is “significantly (P<0.05) reduced”.
With `CN(C)C(=N)N=C(N)N` [metformin, reference compound], the blood glucose load result in series [1] (validation of the mouse model of hyperglycemia) was “effectively reduce”.
On to `Cc1cccc(Oc2cnc(=O)[nH]c2)c1` [Compound 102], for which, in series [1] (setting [9]), the “normal blood glucose level (pre-glucose loading)” value is listed as “significantly decreased” and the “time after drug administration at which significance was lost” value came to 90 min. The “blood glucose level produced by oral glucose administration” value in series [1] (study 1, mice, single administration, 30 mg/kg, oral glucose 1.5 g/kg) is reported as “significantly attenuated”. For the same compound, the “effect on blood glucose level” value in series [1] (study 2, mice, increased (repeated) dosing) was “more dramatic effect”. For the same compound, the “brown, axial, inguinal, renal and epididymal fat pad increases” value in series [2] (fat pads dissected day 31) is “significantly reduced”. The “weight gain (absolute weight and weight change from day 0)” value in series [2] (highest dose tested 30 mg/kg/day) is recorded as “significantly reduced”. The blood leptin level entry in series [3] is given as “reduced leptin level to those fed a normal diet”. The “acute blood glucose response in dose groups” value in series [4] (15 mg/kg and 50 mg/kg dose groups, upon study initiation and on weekly blood glucose testing) is given as “acute dose response”. In series [4] (setting [10]), the animal weight gain entry is “dose dependent effect” and the blood glucose level entry is “dose dependent effect”. For the same compound, the “blood glucose level following acute administration” value in series [4] (measured two hours after first dose) is listed as “reduce blood glucose level”. The weight-gain response entry in series [5] (chronic administration, 5, 15, 50 mg/kg bid) is on record as “significantly inhibited”. For the same compound, the defecation entry in series [5] (chronic administration, bid) was “defecated normally”. The “blood glucose level after oral glucose administration” value in series [6] is “reduced blood glucose level”. For the same compound, the “phosphorylation of IRS-1” value in series [7] was “increases”. Also, the “phosphorylation of AKT” value in series [8] is listed as “increases”.

For the origin of these results see patent US20100197710A1, “Methods Of Activating IRS-1 And AKT” (MELIOR PHARMACEUTICALS I, INC., priority 2007, published 2010).
